Measured values reported in US11873298B2, “Compounds and uses thereof” (JANSSEN PHARMACEUTICA NV, priority 2017, dated 2024).

Columns and labels:
SCD5 = target: T1, SCD5 (Homo sapiens, UniProt Q86SK9); experiment: Growth inhibition of humanized yeast strain expressing SCD5 as sole desaturase; assay type: cell-based
T1 construct: host or cells: S. cerevisiae ole1Δ strain (W303 pdr1Δ pdr3Δ background), plasmid pRS316 with TDH3 promoter and CYC1 terminator
T1 sequence (Q86SK9 1-330): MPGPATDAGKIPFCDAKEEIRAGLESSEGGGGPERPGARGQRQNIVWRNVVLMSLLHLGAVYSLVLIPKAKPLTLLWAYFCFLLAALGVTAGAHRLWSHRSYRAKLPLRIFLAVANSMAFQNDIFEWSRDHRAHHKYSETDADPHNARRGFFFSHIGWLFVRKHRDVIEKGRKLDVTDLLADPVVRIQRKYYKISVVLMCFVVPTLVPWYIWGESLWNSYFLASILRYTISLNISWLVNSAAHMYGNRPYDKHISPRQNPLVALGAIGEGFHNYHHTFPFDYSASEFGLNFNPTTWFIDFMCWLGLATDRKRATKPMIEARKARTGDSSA
In short: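 ole1Δ yeast (W303 pdr1Δ pdr3Δ background) carrying plasmid-borne Ole1, SCD1 or SCD5, grown in uracil-free media; cultures pre-grown in raffinose, seeded at 2× density 0.02 in galactose media with compound. Growth read as OD600 after 24 h at 30° C. for Ole1, 40 h for SCD1/SCD5.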

SCD1 = target: T2, SCD1 (Homo sapiens, UniProt O00767); experiment: Growth inhibition of humanized yeast strain expressing SCD1 as sole desaturase; assay type: cell-based
T2 construct: host or cells: S. cerevisiae ole1Δ strain (W303 pdr1Δ pdr3Δ background), plasmid pRS316 with TDH3 promoter and CYC1 terminator
T2 sequence (O00767 1-359): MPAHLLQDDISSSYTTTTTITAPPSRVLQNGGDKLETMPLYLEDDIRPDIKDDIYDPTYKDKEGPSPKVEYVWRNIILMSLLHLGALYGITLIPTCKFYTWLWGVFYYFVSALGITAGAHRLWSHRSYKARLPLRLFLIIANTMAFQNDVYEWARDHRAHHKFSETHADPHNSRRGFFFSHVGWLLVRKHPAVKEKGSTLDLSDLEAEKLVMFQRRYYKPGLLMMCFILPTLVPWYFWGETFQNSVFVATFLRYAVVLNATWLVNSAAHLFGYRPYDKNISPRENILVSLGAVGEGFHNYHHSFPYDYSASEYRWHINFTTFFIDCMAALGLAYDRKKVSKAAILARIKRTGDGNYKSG
Procedure: Strain oleΔ (yeast ole1 deletion mutant) was constructed by deleting OLE1 with NAT-MX6 in BY4741, amplifying the deletion cassette from the genomic DNA of the resulting strain with primers flanking the ORF by 1000 bp upstream and downstream, transforming the resulting deletion cassette into W303 pdr1Δ pdr3Δ, and plating transformants on YPD media containing G418 (200 μg/mL) and nourseothricin ([…]) with 0.01% TWEEN®-20 and 0.5 mM oleic and palmitoleic acids.
The coding sequence of yeast OLE1 was also cloned into this plasmid). These clones were then transformed into the ole1Δ strain and plated on CSM-Ura media (CSM lacking uracil) with 2% glucose (w/v) and independent colonies were isolated and amplified.
All compound profiling experiments were performed using the same basic protocol. Different genetic backgrounds (e.g., gene deletions) or conditions (e.g., addition of oleic and palmitoleic acid) were replaced as indicated below.
Yeast were cultured using standard techniques in complete synthetic media (CSM) and yeast nitrogen base supplemented with 2% (w/v) carbon source (glucose, raffinose, or galactose) to regulate the expression of the toxic disease protein. An initial starter culture was inoculated in 3 mL CSM-Glucose media and incubated overnight in a 30° C. shaker incubator (225 rpm). Saturated morning cultures were then diluted 1:20 in fresh CSM-Raffinose media and grown for 6 h to an OD600 (optical density) of ˜0.4-0.8 at 30° C. with shaking.
Compound administration was performed in two separate steps. First, 15 μL of CSM-Galactose (induces expression of toxic protein) was dispensed into clear 384 well assay plates using a MULTIDROP™ Combi reagent dispenser. […] The cultures described above were then diluted to a 2× concentration (0.03 and 0.08 for alpha-synuclein and ApoE, final ODsoo of 0.015 and 0.04) in CSM-Galactose. For wild-type and Ole1/SCD1/SCD5 plasmid-containing strains, the 2× cell density was 0.02. […] For 96-well assays (FIGS. 1A and 1B), compound dilutions in DMSO were generated in 96 well plates and 1 μL was manually pipetted into 96 well clear bottom assay plates.
For experiments using a plasmid-borne copy of Ole1, SCD1, or SCD5 (FIGS. 3B, 6, and 7), media lacking uracil (SX-Ura, where X is glucose, raffinose, or galactose), was used for all steps of the compound profiling protocol to ensure its maintenance throughout the assay.
After yeast delivery, assay plates were incubated under humidified conditions at 30° C. for 24 to 40 h. ApoE4 rescue experiments were stopped at 24 h, aSyn experiments at 40 h, Ole1 at 24 h, and SCD1/SCD5 at 40 h. The growth of yeast was monitored by reading the ODsoo of each well using a microplate reader (Perkin Elmer EnVision™).

[1] = growth inhibition of humanized yeast strain expressing human SCD5
[2] = growth inhibition of humanized yeast strain expressing human SCD1

| Structure (SMILES) | IC50 (SCD5; humanized yeast strain, 40 h) | IC50 (SCD1; humanized yeast strain, 40 h) | other results |
| --- | --- | --- | --- |
| CC(C)(C)OC(=O)N1CCC(c2nc(-c3ccc4cnn(C5CCOC5)c4c3)no2)CC1 (stereo not drawn) [Compound 650] |  |  | IC50 (SCD5; [1]): 0.013 µM; IC50 (SCD1; [2]): 4.36 µM |
| CC(C)(C)OC(=O)N1CCC(c2nc(-c3ccc4cnn(C5COC5)c4c3)ns2)CC1 [Compound 621] |  |  | IC50 (SCD5; [1]): 0.042 µM; IC50 (SCD1; [2]): > 45 µM |
| COC(=O)N1CCC(c2noc(-c3ccc4cnn(C5CCN(C)C5=O)c4c3)n2)CC1 (stereo not drawn) [Compound 1101] | 16.6 µM | 27.2 µM |  |
| C[C@@H]1C[C@@H](c2noc(-c3ccc4cnn(C5COC5)c4c3)n2)CCN1C(=O)C1CCC1 [Compound 1066] | 0.000681 µM | > 45 µM |  |
| Cc1nn(C)c2cc(-c3nc(C4CCN(C(=O)OC5CCC5)CC4)no3)ccc12 [Compound 923] | > 45 µM | > 45 µM |  |
| CC(C)(C)OC(=O)N1CCC(c2noc(-c3cccc(C4CCO4)c3)n2)CC1 (stereo not drawn) [Compound 1152] | 0.01 µM | > 45 µM |  |
| CC(C)(C)OC(=O)N1CCN(c2nc(-c3ccc4cnn(C5CNC5)c4c3)no2)CC1 [Compound 910] | 0.01 µM | > 45 µM |  |
| CC(C)(C)OC(=O)N1CCC(F)(c2noc(-c3ccc4cnn(C5COC5)c4c3)n2)CC1 [Compound 883] | 1 µM | > 45 µM |  |
| CC(C)n1nc(CCN(C)C)c2ccc(-c3noc(C4CCN(C(=O)OC(C)(C)C)CC4)n3)cc21 [Compound 759] | > 45 µM | > 45 µM |  |
| CC(=O)N1CC(CC(=O)N2CCC(c3nc(-c4ccc5c(C)nn(C)c5c4)no3)CC2)C1 [Compound 638] |  |  | IC50 (SCD5; [1]): > 45 µM; IC50 (SCD1; [2]): > 45 µM |
| COC(=O)N1CCC(c2nc(-c3ccc4cnn(C5CN(C(=O)OC(C)(C)C)C5)c4c3)no2)CC1 [Compound 951] | > 45 µM | > 45 µM |  |
| O=C(N1CCC(c2noc(-c3ccnc(C4CCOC4)c3)n2)CC1)C1(F)CC1 (stereo not drawn) [Compound 1087] | 0.041 µM | > 45 µM |  |
| O=C(N1CCC(c2noc(-c3ccc4cnn(C5COC5)c4c3)n2)CC1)C1(O)CC1 [Compound 903] | 0.01 µM | > 45 µM |  |
| O=C(c1sccc1Cl)N1CCC(c2nc(-c3ccc4cnn(C5COC5)c4c3)no2)CC1 [Compound 718] |  |  | IC50 (SCD5; [1]): 0.635 µM; IC50 (SCD1; [2]): > 45 µM |
| CC(C)n1ncc2ccc(-c3nc(N4CCNCC4)no3)cc21 [Compound 798] | > 45 µM | > 45 µM |  |
| CC(C)(C)OC(=O)N1CCN(c2nc(-c3ccc4cnn(C5CCOC5)c4c3)no2)CC1 (stereo not drawn) [Compound 784] | 0.01 µM | 0.95 µM |  |
| CC(C)(C)OC(=O)N1CCC(c2nc(-c3ccc4cnn(C5CCC5)c4c3)no2)CC1 [Compound 730] |  |  | IC50 (SCD5; [1]): 0.718 µM; IC50 (SCD1; [2]): > 45 µM |
| CCOC(=O)N1CCN(c2nc(-c3ccc4cnn(C(C)C)c4c3)no2)CC1 [Compound 668] |  |  | IC50 (SCD5; [1]): 0.719 µM; IC50 (SCD1; [2]): > 45 µM |
| COC(=O)N1CCC(c2nc(-c3ccc4cnn(C5CS(=O)(=O)C5)c4c3)no2)CC1 [Compound 1014] | 4.82 µM | > 45 µM |  |
| CC(C)n1ncc2ccc(-c3cc(C4CCN(C(=O)OC(C)(C)C)CC4)on3)nc21 [Compound 835] | > 45 µM | > 45 µM |  |
| CC(=O)N1CC(n2ncc3ccc(-c4nc(N5CCNCC5)no4)cc32)C1 [Compound 937] | > 45 µM | > 45 µM |  |
| CC(C)(C)OC(=O)N1CC=C(c2cnc(-c3ccc4cnn(C5COC5)c4c3)nc2)CC1 [Compound 984] | > 45 µM | > 45 µM |  |
| CC(C)n1ncc2ccc(-c3noc(C4CCN(C(=O)C(C)(C)C#N)CC4)n3)cc21 [Compound 717] |  |  | IC50 (SCD5; [1]): 1.7 µM; IC50 (SCD1; [2]): > 45 µM |

| Structure (SMILES) | IC50 (SCD5; humanized yeast strain, 40 h) | IC50 (SCD1; humanized yeast strain, 40 h) | other results |
| --- | --- | --- | --- |
| Clc1cnc2n1CCN(c1noc(-c3ccc4cnn(C5CNC5)c4c3)n1)C2 [Compound 934] | 0.01 µM | > 45 µM |  |
| COC(=O)N1CCC(c2noc(-c3ccc4cnn(C5COC5)c4c3)n2)CC1 [Compound 676] |  |  | IC50 (SCD5; [1]): 0.013 µM; IC50 (SCD1; [2]): > 45 µM |
| CC1(OC(=O)N2CCC(c3noc(N4CCc5c(cnn5C5COC5)C4)n3)CC2)CC1 [Compound 1193] | > 45 µM | > 45 µM |  |
| COC(=O)N1CCC(c2nnc(-c3ccc4cnn(C(C)C)c4c3)o2)CC1 [Compound 852] | 5.36 µM | > 45 µM |  |
| COC(=O)N1CCC(c2nc(-c3ccc4cnn(C5COC5)c4c3)no2)CC1 [Compound 635] |  |  | IC50 (SCD5; [1]): 0.397 µM; IC50 (SCD1; [2]): > 45 µM |
| CC(C)n1ncc2ccc(-c3noc(C4(F)CCN(C(=O)OC5(C)CC5)CC4)n3)cc21 [Compound 625] |  |  | IC50 (SCD5; [1]): 0.122 µM; IC50 (SCD1; [2]): > 45 µM |
| CC(C)(C)OC(=O)N1C[C@@H]2[C@H](C1)[C@H]2C(=O)NCc1cccc(C#N)c1 [Compound 772] | > 45 µM | > 45 µM |  |
| CC(C)C(=O)N1CCC(c2noc(-c3ccnc(C4CCOC4)c3)n2)CC1 (stereo not drawn) [Compound 1090] | 0.54 µM | > 45 µM |  |
| COC(=O)N1CCC(c2nc(-c3ccc4cnn(C5CNC5)c4c3)no2)CC1 [Compound 950] | > 45 µM | > 45 µM |  |
| CC(C)n1ncc2ccc(-c3ccc(C4CCN(C(=O)OC(C)(C)C)C4)nn3)cc21 (stereo not drawn) [Compound 733] |  |  | IC50 (SCD5; [1]): 2.73 µM; IC50 (SCD1; [2]): > 45 µM |
| CC(C)C(=O)N1CCN(c2noc(-c3ccnc(NC4COC4)c3)n2)CC1 [Compound 1133] | > 45 µM | > 45 µM |  |
| CN(c1cc(-c2nc(N3CCN(C(=O)OC(C)(C)C)CC3)no2)ccn1)C1COC1 [Compound 1022] | 0.01 µM | > 45 µM |  |
| CC(C)C(=O)N1CCC(c2noc(-c3cccc(N4CCOCC4)c3F)n2)CC1 [Compound 1160] | > 45 µM | > 45 µM |  |
| CC(C)n1ncc2ccc(N3CC4(CCN(C(=O)OC(C)(C)C)CC4)OC3=O)cc21 [Compound 671] |  |  | IC50 (SCD5; [1]): > 45 µM; IC50 (SCD1; [2]): > 45 µM |
| O=C(OC1CC1)N1CCC(c2noc(-c3cc(F)c4cnn(C5COC5)c4c3)n2)CC1 [Compound 1071] | 0.00303 µM | > 45 µM |  |
| CC(C)(C)OC(=O)N1CCN(c2noc(-c3ccc4cnn(C5CS(=O)(=O)C5)c4c3)n2)CC1 [Compound 997] | 0.022 µM | > 45 µM |  |
| O=C(CC1CC1)N1CCN(c2noc(-c3ccc4cnn(C5COC5)c4c3)n2)CC(F)(F)C1 [Compound 1035] | 0.265 µM | > 45 µM |  |
| COC(=O)N1CCC(c2noc(-c3ccc4cnn([C@H]5C[C@@H](O)C5)c4c3)n2)CC1 [Compound 945] | 5.29 µM | > 45 µM |  |
| CCC(=O)N1CCC(c2nc(-c3ccc4onc(C(C)C)c4c3)no2)CC1 [Compound 940] | 31.2 µM | > 45 µM |  |
| COC1(C2CCN(c3nc(-c4ccc5cnn(C(C)C)c5c4)no3)CC2)COC1 [Compound 830] | > 45 µM | > 45 µM |  |
| Cc1nn(C)c2cc(-c3noc(C4CCN(c5nc6ccccc6o5)CC4)n3)ccc12 [Compound 669] |  |  | IC50 (SCD5; [1]): > 45 µM; IC50 (SCD1; [2]): > 45 µM |
| CC(C)n1ncc2ccc(-c3nc(C4CCN(C(=O)CC(C)(C)C)C4)no3)cc21 (stereo not drawn) [Compound 542] |  |  | IC50 (SCD5; humanized yeast strain expressing SCD5): 7.33 µM; IC50 (SCD1; humanized yeast strain expressing SCD1): > 45 µM |
